Results: patent publication US6399543B1, “Low foam N,N′-dialkyltartaramide wetting agents” (Air Products and Chemicals, Inc., priority 2001, dated 2002)

Experiments:
Type in all cases: physicochemical
[1] = Foaming properties of aqueous solutions, procedure based upon ASTM D 1173-53; conditions: filtrate of aqueous mixture of the tartaramide; for Initial Foam: foam height at completion of addition
Experimental: The foaming properties of aqueous solutions of N,N′-di-iso-pentyl L-tartaramide (Ex 1), N,N′-di-2-ethylhexyl L-tartaramide (Ex 5) and two representative nonionic surfactants, a commercial nonylphenol 15 mole ethoxylate surfactant and a commercial C8 alkyl glucoside surfactant, were examined using a procedure based upon ASTM D 1173-53.
In this test, an aqueous mixture of the tartaramides was prepared, any undissolved solids were filtered off, and the filtrate was added from an elevated glass pipette to a glass receiver containing the same filtrate. Regarding the commercial materials, a 0.1 wt % solution of the surfactant was added from an elevated glass pipette to a glass receiver containing the same solution. The foam height was measured at the completion of the addition (“Initial Foam Height”) and the time required for the foam to dissipate at the air-liquid interface (“Time to 0 Foam”) was recorded. This test provides a comparison between the foaming characteristics of various surfactants. In general, in coatings, inks, adhesives, agricultural and electronics cleaning formulations, foam is undesirable because it complicates handling and can lead to coating and print defects, and to inefficient application of agricultural materials.

[2] = Concentration of surfactant in filtered saturated solution in distilled water; conditions: shaken ~24 hours
Experimental: (§1) Saturated solutions of the materials of Examples 1-9 in distilled water were prepared. After shaking the solutions for ˜24 hours, the undissolved material was removed via filtration. Equilibrium surface tension (EST) data were obtained using the Wilhelmy plate method. Equilibrium surface tension values between 65-72 dyne/cm are considered to be indicative of a lack of surface activity (i.e., a lack of surfactancy).

[3] = Equilibrium surface tension (EST), Wilhelmy plate method, saturated aqueous solutions; conditions: for Limiting EST: saturated solution in distilled water, undissolved material filtered off, Wilhelmy plate
Experimental: where R^1 and R^2 are C4 to C8 alkyl groups, and at least one of R^1 and R^2 is a branched C4 to C8 alkyl group. […] The Wilhelmy plate method of measuring surface tension is described in L. Wilhelmy's article in Ann. Phys. 1863, 119, 177, which is incorporated by reference.
as §1
The limiting surface tensions represent the lowest surface tensions in water which can be achieved for a given surfactant regardless of the amount of surfactant used and is used to evaluate the effectiveness of a surfactant. Lower surface tensions would allow for the elimination of defects upon application of a formulation onto low energy surfaces.

SMILES	Foam after 5 min [1]	Time to zero foam [1]	Initial Foam [1]	Concentration of Surfactant in Solution [2]	Limiting EST [3]	lowering the equilibrium surface tension of water (in words) [3]
CC(C)CCNC(=O)[C@H](O)[C@@H](O)C(=O)NCCC(C)C [Ex 1, N,N′-Di-iso-pentyl L-tartaramide]	0 cm	≦5 sec	0.5 cm	<1.5 wt. %	48.0 dyne/cm	–
CCCCCCC(C)NC(=O)C(O)C(O)C(=O)NC(C)CCCCCC [Ex 2, N,N′-Di-1-methylheptyl L-tartaramide]	–	–	–	<0.1 wt. %	39.5 dyne/cm	particularly effective
CC(C)CCCC(C)NC(=O)C(O)C(O)C(=O)NC(C)CCCC(C)C [Ex 3, N,N′-Di-1,5-dimethylhexyl L-tartaramide]	–	–	–	<0.1 wt. %	38.0 dyne/cm	particularly effective
CCCCCC(C)NC(=O)C(O)C(O)C(=O)NC(C)CCCCC [Ex 4, N,N′-Di-1-methylhexyl L-tartaramide]	–	–	–	<0.1 wt. %	41.5 dyne/cm	particularly effective
CCCCC(CC)CNC(=O)C(O)C(O)C(=O)NCC(CC)CCCC [Ex 5, N,N′-Di-2-ethylhexyl L-tartaramide]	0 cm	˜3 sec	1.5 cm	<0.1 wt. %	41.4 dyne/cm	particularly effective
CCCNC(=O)[C@H](O)[C@@H](O)C(=O)NCCC [Ex 6, N,N′-Di-n-propyl L-tartaramide]	–	–	–	<1.0 wt. %	67.7 dyne/cm	–
CCCCNC(=O)[C@H](O)[C@@H](O)C(=O)NCCCC [Ex 7, N,N′-Di-n-butyl L-tartaramide]	–	–	–	<1.0 wt. %	65.0 dyne/cm	–
CCCCCCNC(=O)[C@H](O)[C@@H](O)C(=O)NCCCCCC [Ex 8, N,N′-Di-n-hexyl L-tartaramide]	–	–	–	<0.1 wt. %	67.8 dyne/cm	–
O=C(NC1CCCCC1)[C@H](O)[C@@H](O)C(=O)NC1CCCCC1 [Ex 9, N,N′-Di-cyclohexyl L-tartaramide]	–	–	–	<0.1 wt. %	67.9 dyne/cm	–
